For seven molecules, inhibition and IC50 results are on record in ChEMBL document CHEMBL1806412, “Discovery of novel fatty acid synthase (FAS) inhibitors based on the structure of ketoaceyl synthase (KS) domain” (Bioorg Med Chem Lett, 2011).

Active and inactive are the calls of the source. The calls are words filed in the database; no cut-off is given here.

In one test the test system is NCI-H1975. As to the kind of experiment: Growth inhibition of human NCI-H1975 cells at 0.041 to 10 ug/ml after 72 hrs by MTT assay. The test is classed as functional, cell-based.
Another test deals with SW480. As to the kind of experiment: Growth inhibition of human SW480 cells overexpressing FAS gene after 72 hrs by MTT assay. The test is classed as functional, cell-based. To be noted: SW480, 72 h.
The subject of the next test is MDA-MB-468. As to the kind of experiment: Growth inhibition of human MDA-MB-468 cells overexpressing FAS gene after 72 hrs by MTT assay. The test is classed as functional, cell-based. Particulars: MDA-MB-468, 72 h.
Another test addresses Fatty acid synthase (Gallus gallus, UniProt P12276). As to the kind of experiment: Inhibition of chicken FAS by spectrophotometric analysis.

Fatty acid synthase, sequence (P12276 whole entry): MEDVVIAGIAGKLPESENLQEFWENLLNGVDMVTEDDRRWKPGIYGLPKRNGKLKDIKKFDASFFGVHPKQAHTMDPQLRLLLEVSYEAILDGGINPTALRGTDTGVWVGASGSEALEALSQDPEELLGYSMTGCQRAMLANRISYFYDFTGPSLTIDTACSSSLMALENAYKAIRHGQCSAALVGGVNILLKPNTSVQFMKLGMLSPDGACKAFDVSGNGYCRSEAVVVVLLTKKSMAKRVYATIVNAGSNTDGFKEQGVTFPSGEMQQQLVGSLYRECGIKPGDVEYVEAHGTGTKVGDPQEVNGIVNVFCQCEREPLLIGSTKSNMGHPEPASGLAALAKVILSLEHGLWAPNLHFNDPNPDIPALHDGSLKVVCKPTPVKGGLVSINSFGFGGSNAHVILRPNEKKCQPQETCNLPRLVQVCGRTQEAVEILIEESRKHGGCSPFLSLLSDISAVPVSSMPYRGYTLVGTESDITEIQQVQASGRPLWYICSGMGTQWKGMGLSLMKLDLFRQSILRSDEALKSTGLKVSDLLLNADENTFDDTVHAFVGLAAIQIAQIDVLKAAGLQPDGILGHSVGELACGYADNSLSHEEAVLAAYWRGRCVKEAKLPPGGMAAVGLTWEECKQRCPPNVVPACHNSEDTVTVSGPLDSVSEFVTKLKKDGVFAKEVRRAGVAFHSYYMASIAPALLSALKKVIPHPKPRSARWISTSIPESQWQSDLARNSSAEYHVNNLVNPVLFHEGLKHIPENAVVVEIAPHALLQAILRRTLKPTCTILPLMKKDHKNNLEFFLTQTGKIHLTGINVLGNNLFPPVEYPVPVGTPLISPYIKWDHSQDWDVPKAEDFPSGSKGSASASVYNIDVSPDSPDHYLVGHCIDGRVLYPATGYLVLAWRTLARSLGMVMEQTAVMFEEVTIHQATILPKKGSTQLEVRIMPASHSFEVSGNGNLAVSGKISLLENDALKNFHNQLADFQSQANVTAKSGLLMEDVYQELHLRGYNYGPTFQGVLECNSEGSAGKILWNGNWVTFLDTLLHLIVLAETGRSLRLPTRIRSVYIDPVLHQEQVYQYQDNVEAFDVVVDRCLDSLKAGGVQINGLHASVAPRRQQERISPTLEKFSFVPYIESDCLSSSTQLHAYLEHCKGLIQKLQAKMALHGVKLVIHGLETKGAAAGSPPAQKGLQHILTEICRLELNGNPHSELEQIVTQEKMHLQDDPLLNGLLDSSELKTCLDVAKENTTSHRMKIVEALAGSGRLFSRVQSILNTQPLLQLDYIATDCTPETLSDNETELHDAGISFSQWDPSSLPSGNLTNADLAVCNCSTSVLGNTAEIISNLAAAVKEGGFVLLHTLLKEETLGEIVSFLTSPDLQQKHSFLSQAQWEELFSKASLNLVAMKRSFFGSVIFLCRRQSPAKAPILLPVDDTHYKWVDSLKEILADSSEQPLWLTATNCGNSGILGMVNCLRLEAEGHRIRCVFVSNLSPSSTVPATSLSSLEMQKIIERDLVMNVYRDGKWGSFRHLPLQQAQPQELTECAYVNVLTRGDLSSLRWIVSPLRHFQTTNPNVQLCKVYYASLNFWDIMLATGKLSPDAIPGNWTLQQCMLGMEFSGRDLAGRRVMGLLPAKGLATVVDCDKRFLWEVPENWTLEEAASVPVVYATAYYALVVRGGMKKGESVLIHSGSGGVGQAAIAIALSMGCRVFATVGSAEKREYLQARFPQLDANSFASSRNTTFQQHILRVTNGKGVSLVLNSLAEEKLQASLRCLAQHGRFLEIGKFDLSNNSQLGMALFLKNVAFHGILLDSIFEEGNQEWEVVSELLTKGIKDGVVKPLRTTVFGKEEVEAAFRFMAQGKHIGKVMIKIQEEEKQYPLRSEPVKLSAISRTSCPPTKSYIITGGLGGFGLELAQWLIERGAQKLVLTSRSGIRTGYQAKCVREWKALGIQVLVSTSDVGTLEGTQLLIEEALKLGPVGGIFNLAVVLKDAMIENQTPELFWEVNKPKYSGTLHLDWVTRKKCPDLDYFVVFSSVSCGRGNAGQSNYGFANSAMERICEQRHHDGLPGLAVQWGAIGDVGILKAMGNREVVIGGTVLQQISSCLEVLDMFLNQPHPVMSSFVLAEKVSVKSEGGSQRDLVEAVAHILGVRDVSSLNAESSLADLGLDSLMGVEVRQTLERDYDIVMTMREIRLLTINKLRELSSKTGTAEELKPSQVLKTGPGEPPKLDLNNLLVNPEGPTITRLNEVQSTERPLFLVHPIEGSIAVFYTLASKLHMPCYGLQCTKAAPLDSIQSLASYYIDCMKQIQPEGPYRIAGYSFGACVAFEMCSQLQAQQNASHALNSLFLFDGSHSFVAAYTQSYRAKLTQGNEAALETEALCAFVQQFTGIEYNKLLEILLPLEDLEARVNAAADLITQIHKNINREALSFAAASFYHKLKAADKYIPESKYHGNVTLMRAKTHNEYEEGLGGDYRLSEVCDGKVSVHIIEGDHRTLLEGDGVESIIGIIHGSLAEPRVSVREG

As for `CC1=C(C(=O)Nc2ccccc2)[C@@H](c2ccc(OCc3ccccc3)cc2)n2ncnc2N1`, the inhibition result in the test on NCI-H1975 is “inactive”. Further, in the test on SW480, the IC50 turned out to be 19.9 µM.

Consider `CC1=NC2N=NNN2[C@@H](c2ccc(OCc3ccccc3)cc2)C1C(=O)Nc1ccccc1` (some centres not stated), for which the inhibition result with NCI-H1975 was “inactive”. In addition, the IC50 in the test with MDA-MB-468 stood at 19.3 µM; with SW480, 11.1 µM.

As to `CC1=C(C(=O)Nc2ccccn2)C(c2ccc(Br)cc2)NC(S)=N1` (configuration not stated), in the test with NCI-H1975, the inhibition entry was “inactive”. Besides, the IC50 in the test on MDA-MB-468 is 8.4 µM.

Consider `CCn1c(SCC(=O)Nc2cc(Cl)ccc2Cl)nnc1C(C)(C)NC(=O)c1cccc(C)c1`, for which the inhibition entry in the test with NCI-H1975 is “inactive”. The IC50 with SW480 turned out to be 14.7 µM.

With `CC1=C(C(=O)Nc2ccc(Cl)cc2)C(c2cc(Br)ccc2O)NC(=S)N1` (configuration not stated), the inhibition result in the test on NCI-H1975 is “inactive”. The same molecule gave an IC50 in the test with SW480 of 14.2 µM.

As to `O=[N+]([O-])c1cccc(-c2csc(N/N=C\c3ccccn3)n2)c1`, in the test with NCI-H1975, the inhibition entry is “inactive”. For the same molecule, the IC50 in the test on MDA-MB-468 is 8.3 µM; on Fatty acid synthase, 12.7 µM; in the test on SW480, 1.5 µM.

For `COc1cc(OC)c([C@H]2NC(=S)NC(C)=C2C(=O)Nc2ccccc2Cl)cc1OC`, the inhibition result with NCI-H1975 is “inactive”. This molecule also returned an IC50 in the test with SW480 of 7.5 µM.

As a reminder, the IC50 is the concentration that gives 50% inhibition. Low values mean inhibition by little substance, high ones a need for much substance.
